PubChem BioAssay AID2060342 (Molecular Pharmacology Branch, DTP, NCI, 2025)

System: 171881-019-R-J1-PDC multicell spheroid viability
Test: Anticancer human tumor 171881-019-R-J1-PDC patient-derived invasive breast carcinoma cell line growth inhibition [IpAb]
Conditions: for IC50: curve of first compound; for viability, T/C: stronger effect = lower value
Procedure, shortened: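 Combinations with ipatasertib or abemaciclib were tested on tumour spheroids holding HUVEC (25%) and MSC (15%) alongside 60% malignant cells. Top concentration was at or near clinical Cmax (10 microM if undefined), descending in half-log steps.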
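Note: spheroids exposed to the agents for seven days before readout.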

C=CC(=O)N1CCN(c2nc(=O)n(-c3c(C)ccnc3C(C)C)c3nc(-c4c(O)cccc4F)c(F)cc23)C(C)C1 (stereo not given) + CC(C)NCC(C(=O)N1CCN(c2ncnc3c2C(C)CC3O)CC1)c1ccc(Cl)cc1
IC50 (second compound 0.1 µM): 5260 nM
IC50 (second compound 0.316 µM): 1830 nM
IC50 (second compound 1 µM): < 31.6 nM
IC50 (second compound 3.16 µM): < 31.6 nM
IC50 (second compound 10 µM): < 31.6 nM
viability, T/C (second compound 0.1 µM, first compound 0.0316 µM): 102%
viability, T/C (second compound 0.1 µM, first compound 0.1 µM): 87.7%
viability, T/C (second compound 0.1 µM, first compound 0.316 µM): 90%
viability, T/C (second compound 0.1 µM, first compound 1 µM): 95.9%
viability, T/C (second compound 0.1 µM, first compound 3.16 µM): 74.2%
viability, T/C (second compound 0.1 µM, first compound 10 µM): 19.5%
viability, T/C (second compound 0.316 µM, first compound 0.0316 µM): 74.1%
viability, T/C (second compound 0.316 µM, first compound 0.1 µM): 67%
viability, T/C (second compound 0.316 µM, first compound 0.316 µM): 69%
viability, T/C (second compound 0.316 µM, first compound 1 µM): 64.7%
viability, T/C (second compound 0.316 µM, first compound 3.16 µM): 36.8%
viability, T/C (second compound 0.316 µM, first compound 10 µM): 13.2%
viability, T/C (second compound 1 µM, first compound 0.0316 µM): 24.6%
viability, T/C (second compound 1 µM, first compound 0.1 µM): 26.6%
viability, T/C (second compound 1 µM, first compound 0.316 µM): 25.9%
viability, T/C (second compound 1 µM, first compound 1 µM): 22.1%
viability, T/C (second compound 1 µM, first compound 3.16 µM): 17.3%
viability, T/C (second compound 1 µM, first compound 10 µM): 7.56%
viability, T/C (second compound 3.16 µM, first compound 0.0316 µM): 10.2%
viability, T/C (second compound 3.16 µM, first compound 0.1 µM): 11.7%
viability, T/C (second compound 3.16 µM, first compound 0.316 µM): 10.2%
viability, T/C (second compound 3.16 µM, first compound 1 µM): 11.5%
viability, T/C (second compound 3.16 µM, first compound 3.16 µM): 8.09%
viability, T/C (second compound 3.16 µM, first compound 10 µM): 4.11%
viability, T/C (second compound 10 µM, first compound 0.0316 µM): 5.17%
viability, T/C (second compound 10 µM, first compound 0.1 µM): 5.24%
viability, T/C (second compound 10 µM, first compound 0.316 µM): 6.38%
viability, T/C (second compound 10 µM, first compound 1 µM): 5.65%
viability, T/C (second compound 10 µM, first compound 3.16 µM): 5.64%
viability, T/C (second compound 10 µM, first compound 10 µM): 3.86%

CC(=O)c1c(C)c2cnc(Nc3ccc(N4CCNCC4)cn3)nc2n(C2CCCC2)c1=O + CC(C)NCC(C(=O)N1CCN(c2ncnc3c2C(C)CC3O)CC1)c1ccc(Cl)cc1
IC50 (second compound 0.1 µM): > 300 nM
IC50 (second compound 0.316 µM): > 300 nM
IC50 (second compound 1 µM): < 0.949 nM
IC50 (second compound 3.16 µM): < 0.949 nM
IC50 (second compound 10 µM): < 0.949 nM
viability, T/C (second compound 0.1 µM, first compound 0.000949 µM): 98.8%
viability, T/C (second compound 0.1 µM, first compound 0.003 µM): 112%
viability, T/C (second compound 0.1 µM, first compound 0.00949 µM): 94%
viability, T/C (second compound 0.1 µM, first compound 0.03 µM): 106%
viability, T/C (second compound 0.1 µM, first compound 0.0949 µM): 103%
viability, T/C (second compound 0.1 µM, first compound 0.3 µM): 93.5%
viability, T/C (second compound 0.316 µM, first compound 0.000949 µM): 83.3%
viability, T/C (second compound 0.316 µM, first compound 0.003 µM): 84.8%
viability, T/C (second compound 0.316 µM, first compound 0.00949 µM): 77.4%
viability, T/C (second compound 0.316 µM, first compound 0.03 µM): 76.1%
viability, T/C (second compound 0.316 µM, first compound 0.0949 µM): 64.6%
viability, T/C (second compound 0.316 µM, first compound 0.3 µM): 59.6%
viability, T/C (second compound 1 µM, first compound 0.000949 µM): 30.8%
viability, T/C (second compound 1 µM, first compound 0.003 µM): 26.1%
viability, T/C (second compound 1 µM, first compound 0.00949 µM): 27.8%
viability, T/C (second compound 1 µM, first compound 0.03 µM): 25.9%
viability, T/C (second compound 1 µM, first compound 0.0949 µM): 26.1%
viability, T/C (second compound 1 µM, first compound 0.3 µM): 23.9%
viability, T/C (second compound 3.16 µM, first compound 0.000949 µM): 12.4%
viability, T/C (second compound 3.16 µM, first compound 0.003 µM): 11.8%
viability, T/C (second compound 3.16 µM, first compound 0.00949 µM): 12.2%
viability, T/C (second compound 3.16 µM, first compound 0.03 µM): 10.2%
viability, T/C (second compound 3.16 µM, first compound 0.0949 µM): 9.89%
viability, T/C (second compound 3.16 µM, first compound 0.3 µM): 9.65%
viability, T/C (second compound 10 µM, first compound 0.000949 µM): 6.66%
viability, T/C (second compound 10 µM, first compound 0.003 µM): 6.56%
viability, T/C (second compound 10 µM, first compound 0.00949 µM): 6.69%
viability, T/C (second compound 10 µM, first compound 0.03 µM): 5.87%
viability, T/C (second compound 10 µM, first compound 0.0949 µM): 5.79%
viability, T/C (second compound 10 µM, first compound 0.3 µM): 5.34%
